Reference: US20090270407A1, “FUNGICIDAL ISOXAZOLIDINES” (E. I. DU PONT DE NEMOURS AND COMPANY, priority 2008, published 2009)
Marks after values point to notes of the source that are not given here.

Legend:
Details in all cases: 100 = 100 % disease control, 0 = no disease control relative to controls
Botrytis cinerea = experiment: Test E: tomato Botrytis, preventive spray on tomato seedlings, visual disease rating
Septoria tritici = experiment: Test D: wheat leaf blotch, preventive spray on wheat seedlings, visual disease rating; type: in vivo
Source text: A dash (−) indicates no test results.

[1] = system: Puccinia recondita f. sp. tritici; experiment: Test B: wheat leaf rust, preventive spray on wheat seedlings, visual disease rating
[2] = system: Erysiphe graminis f. sp. tritici; experiment: Test A: wheat powdery mildew, preventive spray on wheat seedlings, visual disease rating
Source text: (§1) General protocol for preparing test suspensions for Tests A-I: The test compounds were first dissolved in acetone in an amount equal to 3% of the final volume and then suspended at the desired concentration (in ppm) in acetone and purified water (50/50 mix) containing 250 ppm of the surfactant Trem® 014 (polyhydric alcohol esters). The resulting test suspensions were then used in Tests A-I. Spraying a 200 ppm test suspension to the point of run-off on the test plants was the equivalent of a rate of 500 g/ha. (An asterisk “*” next to the rating value indicates a 40 ppm test suspension.)
The test suspension was sprayed to the point of run-off on wheat seedlings. The following day the seedlings were inoculated with a spore dust of Erysiphe graminis f. sp. tritici (the causal agent of wheat powdery mildew) and incubated in a growth chamber at 20° C. for 8 days, after which time visual disease ratings were made.

Septoria nodorum = experiment: Test C: wheat glume blotch, preventive spray on wheat seedlings, visual disease rating
Description: (An asterisk “*” next to the rating value indicates a 40 ppm test suspension.)
The test suspension was sprayed to the point of run-off on wheat seedlings. The following day the seedlings were inoculated with a spore suspension of Septoria nodorum (the causal agent of wheat glume blotch) and incubated in a saturated atmosphere at 20° C. for 48 h, and then moved to a growth chamber at 20° C. for 7 days, after which time visual disease ratings were made.
(§2) A dash (−) indicates no test results. All results are for 200 ppm except where followed by “*” which indicates 40 ppm.

Alternaria solani = experiment: Test F: tomato early blight, preventive spray on tomato seedlings, visual disease rating
Source text: as §1
The test suspension was sprayed to the point of run-off on tomato seedlings. The following day the seedlings were inoculated with a spore suspension of Alternaria solani (the causal agent of tomato early blight) and incubated in a saturated atmosphere at 27° C. for 48 h, and then moved to a growth chamber at 20° C. for 5 days, after which time visual disease ratings were made.
as §2

Compound | Test E disease control rating (Botrytis cinerea; 40 ppm (marked *)) | Test D disease control rating (Septoria tritici; 40 ppm (marked *)) | Test B disease control rating ([1]; 40 ppm (marked *)) | Test A disease control rating ([2]; 40 ppm (marked *)) | Test C disease control rating (Septoria nodorum; 40 ppm (marked *)) | Test F disease control rating (Alternaria solani; 40 ppm (marked *)) | Test E disease control rating (Botrytis cinerea; 200 ppm) [%] | Test D disease control rating (Septoria tritici; 200 ppm) [%] | Test B disease control rating ([1]; 200 ppm) [%] | Test A disease control rating ([2]; 200 ppm) [%] | Test C disease control rating (Septoria nodorum; 200 ppm) [%] | Test F disease control rating (Alternaria solani; 200 ppm) [%]
CN1OC(C)(c2cccnc2)CC1c1ccc(-n2nc(C(F)(F)F)cc2-c2ccccn2)cc1 (stereo not drawn) [Compound 70] | 0* % | 54* % | 26* % | 0* % | 0* % | 72* % | – | – | – | – | – | –
CN1OC(C)(c2cccnc2)CC1c1ccc(Br)cc1Br (stereo not drawn) [Compound 84] | – | – | – | – | – | – | 43 | 52 | 27 | 94 | 60 | 0
Cc1cc(C)n(-c2ccc(C3CC(C)(c4cccnc4)ON3C)cc2)n1 (stereo not drawn) [Compound 51] | 0* % | 32* % | 0* % | 0* % | 0* % | 0* % | – | – | – | – | – | –
CN1OC(C)(c2cccnc2)CC1c1ccccc1Cl (stereo not drawn) [Compound 92] | – | – | – | – | – | – | 0 | 22 | 0 | 0 | 0 | 0
CN1OC(C)(c2cccnc2)CC1c1ccc(-n2nc(-c3ccccn3)cc2C(F)(F)F)cc1 (stereo not drawn) [Compound 74] | 0* % | 2* % | 22* % | 0* % | 0* % | 0* % | – | – | – | – | – | –
Cc1ccn(-c2ccc(C3CC(C)(c4cccnc4)ON3C)cc2)n1 (stereo not drawn) [Compound 43] | 88* % | 79* % | 0* % | 0* % | 90* % | 52* % | – | – | – | – | – | –
CN(C)c1ccc(C2CC(C)(c3cccnc3)ON2C)c2ccccc12 (mixture of isomers) [Compound 90] | – | – | – | – | – | – | 0 | 35 | 0 | 0 | 0 | 0
CN1OC(C)(c2cccnc2)CC1c1ccc(-n2nc(C(F)(F)F)cc2-c2ccccn2)cc1 (stereo not drawn) [Compound 71] | 0* % | 10* % | 28* % | 0* % | 0* % | 12* % | – | – | – | – | – | –
CN1OC(C)(c2cccnc2)CC1c1ccc(Br)c(F)c1 (stereo not drawn) [Compound 101] | – | – | – | – | – | – | 100 | 68 | 0 | 99 | 86 | 99
CN1OC(C)(c2cccnc2)CC1c1ccc(-n2ccc(-c3ccc(Br)cc3)n2)cc1 (stereo not drawn) [Compound 48] | 20* % | 43* % | 0* % | 61* % | 0* % | 0* % | – | – | – | – | – | –
CN1OC(C)(c2cccnc2)CC1c1ccccc1Cl (stereo not drawn) [Compound 93] | – | – | – | – | – | – | 0 | 3 | 0 | 0 | 0 | 0
CN1OC(C)(c2cccnc2)CC1c1ccc(-c2cccs2)cc1 (stereo not drawn) [Compound 55] | 97* % | 93* % | 0* % | 61* % | 84* % | 85* % | – | – | – | – | – | –
